This is an account of results in ChEMBL document CHEMBL3046890, “Synthesis and Herbicidal Activity of Sulfonylureas; SL-950 and Its Related Compounds” (1995).

What all share (format): functional
Assay [1] concerns Zea mays. Briefly: Post emergence phyototoxic activity against Zea mays (maize) plants assessed as inhibition of plant growth at 125 g ai/ha measured 22 to 37 days after compound application under greenhouse conditions. To be noted: read-out: GI.
Assay [2] deals with Amaranthus viridis. Description: Post-emergence herbicidal activity against three-leaf stage Amaranthus viridis assessed as efficacy of weed growth control at 40 g ai/ha under greenhouse conditions.
The subject of assay [3] is Amaranthus viridis. Briefly: Post-emergence herbicidal activity against three-leaf stage Amaranthus viridis assessed as efficacy of weed growth control at 750 g ai/ha under greenhouse conditions.
The test system of assay [4] is Abutilon theophrasti. Description: Post-emergence herbicidal activity against one-leaf stage Abutilon theophrasti (velvetleaf) assessed as efficacy of weed growth control at 60 g ai/ha under greenhouse conditions.
In assay [5] the test system is Chenopodium album. Description: Post-emergence herbicidal activity against two-leaf stage Chenopodium album assessed as efficacy of weed growth control at 60 g ai/ha under greenhouse conditions.
For assay [6], the system named is Eleusine indica. Description: Post-emergence herbicidal activity against three-leaf stage Eleusine indica assessed as efficacy of weed growth control at 80 g ai/ha under greenhouse conditions.
The subject of assay [7] is Digitaria sanguinalis. Description: Post-emergence herbicidal activity against two-leaf stage Digitaria sanguinalis (hairy crabgrass) assessed as efficacy of weed growth control at 40 g ai/ha under greenhouse conditions.
In assay [8] the test system is Elymus repens. Briefly: Post-emergence herbicidal activity against three to four-leaf stage Elymus repens (couch grass) assessed as efficacy of weed growth control at 40 g ai/ha under greenhouse conditions.

Consider `COc1cc(OC)nc(NC(=O)NS(=O)(=O)c2ncccc2C(=O)N(C)C)n1` [NICOSULFURON], for which, in assay [1], the inhibition of growth at 125 g/ha amounted to 0%. The Efficacy in assay [2] was 95%; in assay [3], 50%; in assay [4], 50%; in assay [5], 70%; in assay [6] it was 95%; in assay [7] it was 70%. Also, the Efficacy in assay [8] worked out at 70%.
